A short description of data set [1]: Plasma protein binding, equilibrium dialysis. The following applies: human plasma dialysed against phosphate buffer, pH 7.4, mass recovery from the dialysis device. The class given is in vitro ADME. As for the experimental part:
(§1) Human plasma was obtained from Bioreclamation (Lot No. BRH354026). A 96-Well Micro-equilibrium Dialysis Device (HT-Dialysis LLC, Model HTD 96 b) separated by dialysis membrane (MWCO 12-14k, HT Dialysis), was used to study the protein binding. The dialysis membrane strips were soaked in distilled water for 1 hour and then in 20% ethanol in water (v/v) for another 20 minutes. The membrane strips were subsequently rinsed 20 min in pure water before use. The studied compounds were individually spiked into human plasma to a final concentration of 0.2 μM, and pre-incubated for 30 min. Aliquots (150 μL) of phosphate buffer (100 mM sodium phosphate, pH 7.4) and spiked plasma was placed in the receiver and donor compartment, respectively. The dialysis block was sealed and placed in a shaker (150 rpm) for 6 hours at 37° C. Each experiment was performed in triplicates (n=3). Aliquot 50 μL from both the donor sides and receiver sides of the dialysis devise was transferred into new sample preparation plates and mixed with the aliquots with same volume of opposite matrixes (blank buffer to plasma and visa verse). […] Hundred μL of the supernatant was transferred to a new 96-well plate and mixed with 200 μL of Milli-Q water containing 0.1% FA. Drug content was quantified with LC/MS/MS (Sciex API4000).
(§2) Percent bound to plasma is calculated as follows:
(§3) % Bound=100−(100×[Receiver]6h/[Donor]6h.) Equation 2
(§4) Mass recovery of test compound from the HTDialysis after 6 h is calculated as follows:
(§5) % Recovery=100×([Donor]6h+[Receiver]6h)/[Donor]0h Equation 3
(In equilibrium dialysis free small molecules cross a membrane that holds back macromolecules.)

A further data set has as its system human plasma proteins. The experiment in a line: Plasma protein binding, equilibrium dialysis. The data set is classed as in vitro ADME. The following applies: for degree of protein binding in human plasma compared to tandospirone: One-way ANOVA with Dunnett's test vs Tandospirone. As for the experimental part: as §1, §2, §3, §4, §5
The nature of the next data set: in vitro. The following applies: pH 7.4. On the procedure: The mixture of compound and microsome was pre-incubated for 30 minutes, initiating the reaction by addition of NADPH regenerating system (1 unit/mL Isocitric dehydrogenase). At time point 0, 5, 15, 30, 45 and 60 minutes the reactions were stopped by addition of 300 μL cold acetonitrile ([…]) containing 100 ng/mL tolbutamide as internal standard (IS). The samples were immediately mixed and centrifuged at 4000 rpm for 20 min. 100 μL supernatant was transferred to a fresh 96-well containing 300 μL HPLC-grade water for quantitative analysis by LC-MS/MS (LC: Shimatzu LC 10 AD; MS/MS detection: Sciex API4000), using positive ion electrospray. Triplicate experiments (n=3) was performed for each compound. A single-exponential curve (Ct=C0*e^−kt) was fitted to the concentration-time data points to calculate the elimination rate constant (k). The following equation 1 was used to calculate the total hepatic intrinsic clearance (CLint): […]

The nature of data set [2]: Permeability over MDR1-transfected MDCK cell monolayer. The class given is in vitro ADME, Canine. The following applies: dog; MDR1-MDCK cell monolayer, 2 μM, 150-minute incubation, apical to basolateral. As for the experimental part:
(§6) The ability of molecules to pass a biological membrane, like the gastro-intestinal epithelia and the blood-brain barrier endothelia is essential for orally delivered drugs targeting diseases in the brain. The Madin-Darby Canine Kidney (MDCK) cell line is used as an industry standard to evaluate biomembrane passage properties of drugs. […] Test compounds were diluted with the transport buffer (HBSS+1% BSA) from a 10 mM stock solution to a concentration of 2 μM and applied to the apical (A) or basolateral (B) side of the cell monolayer.
(§7) In addition, the efflux ratio of each compound was also determined.
(§8) The apparent biomembrane permeability coefficient Papp (cm/s) was calculated using the equation:
(§9) Papp=(dCr/dt)×Vr/(A×C0) Equation 4
(§10) Where dCr/dt is the cumulative concentration of compound in the receiver chamber as a function of time (μM/s); Vr is the solution volume in the receiver chamber (0.075 mL on the apical side, 0.25 mL on the basolateral side); A is the surface area for the transport, i.e. 0.084 cm2 for the area of the monolayer; Co is the initial concentration in the donor chamber.
(§11) The efflux ratio was calculated using the equation:
(§12) Efflux Ratio=Papp(BA)/Papp(AB) Equation 5
(§13) Percent recovery was calculated using the equation:
(§14) % Recovery=100×[(Vr×Cr)+(Vd×Cd)]/(Vd×C0) Equation 6
(§15) Where Vd is the volume in the donor chambers (0.075 mL on the apical side, 0.25 mL on the basolateral side); Cd and Cr are the final concentrations of transport compound in donor and receiver chambers, respectively.

Another data set relates to MDR1-MDCK cell monolayer. The data set is described as above. The class given is in vitro ADME, Canine. As for the experimental part: as §6, §7, §8, §9, §10, §11, §12, §13, §14, §15
In the next data set the test system is MDR1 (P-gp). The data set is described as above. The data set is classed as in vitro ADME, Canine. The following applies: dog, donor and receiver chamber, MDR1-MDCK monolayer, 2 μM. On the procedure: as §6, §7, §8, §9, §10, §11, §12, §13, §14, §15
Data set [3] deals with serotonin 5-HT1A receptor. The following applies: Hamik et al. 1990; read-out: Ki affinity value; cited from earlier work.
Data set [4] concerns serotonin 5-HT1A receptor. The following applies: partial agonist; Tanaka et al. 1995 and Yabuuchi et al. 2004; cited from earlier work.
A further data set deals with plasma proteins. The following applies: Miller et al., 1992; cited from earlier work.
For data set [5] the following is noted: in humans; Nakashima and Kanemaru 1992; cited from earlier work.
The mark [6] stands for this setting: pH 7.4, 0.2 μM, equilibrium dialysis, 37° C., n=3, read-out: Protein binding (%) (converted).

Read-outs that look alike come from different tables or passages of the source.

By CLint scaled is commonly meant the capacity of the preparation to metabolise the compound, expressed as a volume cleared per time. The low end stands for greater metabolic stability, the high end for faster metabolism. In turn, `[2H]C([2H])(CCCN1C(=O)[C@@H]2[C@@H]3CC[C@@H](C3)[C@@H]2C1=O)N1CCN(c2ncccn2)CC1` [Compound II, (1R,2R,6S,7S)-4-{4-[4-(pyrimidin-2-yl)piperazin-1-yl]-(4,4-^2H2)butyl}-4-azatricyclo[5.2.1.0^2,6]decane-3,5-dione] registered a recovery at 6 h, 0.2 μM in data set [1] of 95%. Moreover, the “degree of protein binding in human plasma compared to tandospirone” value (from here on “degree … compared to tandospirone”) with human plasma proteins is listed as “statistically significant lower degree of protein binding”. Further, in the data set with human plasma proteins (setting [6]), the fraction unbound at 6 h, 0.2 μM was 0.42. Further, the CLint scaled at 1 μM in the data set “in vitro” (human, microsomes) turned out to be 235 mL/min/kg.
One may read the Papp A→B as the apparent permeability from the apical to the basolateral side of a cell layer. Higher therefore signals fast passage. For `[2H]c1cnc(N2CCN(C([2H])([2H])CCCN3C(=O)[C@@H]4[C@@H]5CC[C@@H](C5)[C@@H]4C3=O)CC2)nc1` [Compound III, (1R,2R,6S,7S)-4-{4-[4-((5-^2H)pyrimidin-2-yl)piperazin-1-yl]-(4,4-^2H2)butyl}-4-azatricyclo[5.2.1.0^2,6]decane-3,5-dione], in [2], the Papp A→B at 150 min, 2 μM was determined as 35 ×10⁻⁶ cm/s. Moreover, the “Papp, A-B compared to tandospirone” value in the data set on MDR1-MDCK cell monolayer (P<0.05, One-way ANOVA with Dunnett's test) is “statistically significant higher Papp, A-B”. In addition, the recovery at 150 min, 2 μM in the data set on MDR1 (P-gp) (MDCK-MDR1 cell monolayer) was 112%. In data set [1], this molecule came in with a recovery at 6 h, 0.2 μM of 86%. The “degree … compared to tandospirone” value in the data set on human plasma proteins is reported as “statistically significant lower degree of protein binding”. The fraction unbound at 6 h, 0.2 μM with human plasma proteins (setting [6]) is 0.51. In addition, the CLint scaled at 1 μM in the data set “in vitro” (human, microsomes) was 219 mL/min/kg.
As to `[2H]C([2H])(CCCN1C(=O)[C@@]2([2H])[C@H]3CC[C@H](C3)[C@@]2([2H])C1=O)N1CCN(c2ncccn2)CC1` [Compound XV, (1R,2R,6S,7S)-4-{4-[4-(pyrimidin-2-yl)piperazin-1-yl]-(4-^2H2)butyl}-(2,6-^2H2)-4-azatricyclo[5.2.1.0^2,6]decane-3,5-dione], in data set [1], the recovery at 6 h, 0.2 μM was determined as 92%. For the same molecule, the fraction unbound at 6 h, 0.2 μM with human plasma proteins (setting [6]) is 0.38. For the same molecule, the CLint scaled at 1 μM in the data set “in vitro” (human, microsomes) is 229 mL/min/kg.
Regarding `O=C(O)Cc1ccccc1Nc1c(Cl)cccc1Cl` [Diclofenac, reference compound], the CLint scaled at 1 μM in the data set “in vitro” (human, microsomes) came to 90 mL/min/kg.
`CC(Cc1ccc(O)cc1)NCC(O)c1cc(O)cc(O)c1` (stereo not drawn) [Fenoterol] showed a Papp A→B at 150 min, 2 μM in data set [2] of 0.92 ×10⁻⁶ cm/s. Moreover, the recovery at 150 min, 2 μM with MDR1 (P-gp) came to 109%.
`[2H]c1cnc(N2CCN(C([2H])CCCN3C(=O)[C@@H]4[C@@H]5CC[C@@H](C5)[C@@H]4C3=O)CC2)nc1` (stereo partly drawn) [IX, (1R,2R,6S,7S)-4-{4-[4-((5-^2H)pyrimidin-2-yl)piperazin-1-yl]-(4-^2H)butyl}-4-azatricyclo[5.2.1.0^2,6]decane-3,5-dione]: the “degree … compared to tandospirone” value in the data set with human plasma proteins is recorded as “statistically significant lower degree of protein binding”.
For `CC(C)NCC(O)COc1cccc2ccccc12` (stereo not drawn) [Propranolol], in the data set with MDR1-MDCK cell monolayer (MDR1-MDCK cell monolayer, 2 μM), the B-A/A-B efflux ratio was 62. The “Papp, A-B (×10^−6 cm/s)” value with MDR1-MDCK cell monolayer (MDR1-MDCK cell monolayer, 2 μM, 150-minute incubation, apical to basolateral) was 15 ×10^−6 cm/s.
As usually defined, the Ki is a dissociation constant, usually derived from enzyme kinetics or from competition with a known ligand. Consider `O=C1[C@@H]2[C@@H]3CC[C@@H](C3)[C@@H]2C(=O)N1CCCCN1CCN(c2ncccn2)CC1` [Tandospirone, (1R,2R,6S,7S)-4-{4-[4-(pyrimidin-2-yl)piperazin-1-yl]butyl}-4-azatricyclo[5.2.1.0^2,6]decane-3,5-dione], for which the Ki in [3] was 27 ± 5 nM. The intrinsic activity in data set [4] is recorded as 55-85%.
In the case of `O=C1[C@@H]2[C@H]3CC[C@H](C3)[C@@H]2C(=O)N1CCCCN1CCN(c2ncccn2)CC1` [Tandospirone, (1R,2R,6S,7S)-4-{4-[4-(pyrimidin-2-yl)piperazin-1-yl]butyl}-4-azatricyclo[5.2.1.0^2,6]decane-3,5-dione], in the data set with plasma proteins, the “unbound fraction reported in the literature” value is on record as 30.4%. In addition, the Papp A→B at 150 min, 2 μM in data set [2] was found to be 30 ×10⁻⁶ cm/s. This molecule yielded a recovery at 150 min, 2 μM with MDR1 (P-gp) (MDCK-MDR1 cell monolayer) of 107%. Besides, in data set [1], the recovery at 6 h, 0.2 μM was 82%. In addition, the “Protein binding (%)” value with human plasma proteins (0.2 μM, equilibrium dialysis, 37° C., n=3) is listed as 70%. The fraction unbound at 6 h, 0.2 μM in the data set on human plasma proteins (human, pH 7.4, read-out: observed unbound fraction) came out at 0.3. The CLint scaled at 1 μM in “in vitro” (human, microsomes) stood at 282 mL/min/kg. In addition, in data set [5], the “elimination half-life in the systemic circulation” value is 1 to 2 h.
Turning to `C[C@]12CC[C@H]3[C@@H](CCC4=CC(=O)CC[C@@]43C)[C@@H]1CC[C@@H]2O` [Testosterone, reference compound], the CLint scaled at 1 μM in the data set “in vitro” was found to be 70 mL/min/kg.
As to `[2H]C1C([2H])[C@@H]2C[C@H]1[C@@H]1C(=O)N(CCCC([2H])([2H])N3CCN(c4ncccn4)CC3)C(=O)[C@@H]12` (stereo partly drawn) [VI, (1R,2R,6S,7S)-4-{4-[4-(pyrimidin-2-yl)piperazin-1-yl]-(4,4-^2H2)butyl}-(8,9-^2H2)-4-azatricyclo[5.2.1.0^2,6]decane-3,5-dione], in data set [1], the recovery at 6 h, 0.2 μM was determined as 96%. The “degree … compared to tandospirone” value in the data set with human plasma proteins was “statistically significant lower degree of protein binding”. The fraction unbound at 6 h, 0.2 μM with human plasma proteins (setting [6]) is 0.43. The molecule further displayed a CLint scaled at 1 μM in the data set “in vitro” (human, microsomes) of 240 mL/min/kg.
In turn, `[2H]c1cnc(N2CCN(C([2H])([2H])CCCN3C(=O)[C@@H]4[C@H](C3=O)[C@H]3C[C@@H]4C([2H])C3[2H])CC2)nc1` (stereo partly drawn) [VII, (1R,2R,6S,7S)-4-{4-[4-((5-^2H)pyrimidin-2-yl)piperazin-1-yl]-(4,4-^2H2)butyl}-(8,9-^2H2)-4-azatricyclo[5.2.1.0^2,6]decane-3,5-dione] had a recovery at 6 h, 0.2 μM in data set [1] of 94%. Moreover, the fraction unbound at 6 h, 0.2 μM in the data set with human plasma proteins (setting [6]) was 0.31. In the data set “in vitro” (human, microsomes), this molecule displayed a CLint scaled at 1 μM of 231 mL/min/kg.
The molecule `[2H]C([2H])(CN1C(=O)[C@@H]2[C@@H]3CC[C@@H](C3)[C@@H]2C1=O)C([2H])([2H])C([2H])([2H])N1CCN(c2ncccn2)CC1` [XVIII, (1R,2R,6S,7S)-4-{4-[4-(pyrimidin-2-yl)piperazin-1-yl]-(2,2,3,3,4,4-^2H6)butyl}-4-azatricyclo[5.2.1.0^2,6]decane-3,5-dione] showed a recovery at 6 h, 0.2 μM in [1] of 111%. The “degree … compared to tandospirone” value in the data set with human plasma proteins is “statistically significant lower degree of protein binding”. In addition, in the data set with human plasma proteins (setting [6]), the fraction unbound at 6 h, 0.2 μM is 0.47. In addition, the CLint scaled at 1 μM in “in vitro” (human, microsomes) was 224 mL/min/kg.

The values are drawn from US20130303497A1, “DEUTERATED 5-HT1A RECEPTOR AGONISTS” (priority 2010, published 2013).
